The values that follow come from ChEMBL document CHEMBL3507680, “University of Dundee, Gates Library screen for HepG2 cell viability”.

The structures appear in SMILES notation.

This series is described as follows: Human HepG2 cell viability assay in 384 well format. It is filed as toxicity, cell-based. Details: dose 125 nL, time 70.5 hour; cytotoxicity at 70.5 h: concentration not given beside the values. As to conditions: HepG2 cells, read-out: Inhibition.
Turning to `CC1N(CC2CC2)C(=O)COC12CCN(C(=O)c1cscn1)CC2` (centres undefined), the cytotoxicity at 70.5 h was -5.04%. The same measure for `CC(=O)N1CCC(c2cc3c(ncn3C)c(-c3cnn(C)c3)n2)CC1`: -8.6%; for `Cn1cccc1C(=O)NC[C@H]1C[C@@H]2CN(C(=O)c3ccno3)C[C@H]2O1`: -9.62%. The same measure for `c1cnc(NCc2n[nH]c3c2CCN(Cc2cccnc2)C3)nc1`: -12.3%. Regarding `CCN1CC2(CC1=O)CN(C(=O)N(C)C)CCN(S(C)(=O)=O)C2` (centres undefined), the cytotoxicity at 70.5 h is -10.5%.

Consider `CCN1CC2(CC1=O)CN(C(=O)COC)CCN(S(C)(=O)=O)C2` (centres undefined), for which the cytotoxicity at 70.5 h was -11%. As for `O[C@H]1CCN(CC2CCOC2)[C@H]1Cc1ccncc1` (some centres undefined), the figure is -11.6%; as for `CC(C)Nc1nc2c(c(NC3CC3)n1)CN(C(=O)c1ccnnc1)CC2`, 32.6%; as for `O=C(C1CCSCC1)N1CC[C@H]2OCC[C@@]2(COCC2CC2)C1`, -6.06%. As for `COc1cccc(-c2cnc3n2CCC32CCN(C(C)=O)CC2)c1`, the figure is -3.5%. Take `COCC1CN(C(=O)[C@H]2CCCO2)Cc2nnn(CC3CC3)c21` (some centres undefined): the cytotoxicity at 70.5 h was -5.8%.

In the case of `Cc1nc(COCc2nc3c(o2)CN(C(=O)c2ccoc2)C3)cs1`, the cytotoxicity at 70.5 h is -7.05%. Take `CC(C)N1CCC(c2ccnc3c(C(=O)N4CCOCC4)ncn23)CC1`: the cytotoxicity at 70.5 h is -5.36%. The same measure for `CN(C)C(=O)N1CC2(CCOCC2)c2cc(NC(=O)CCO)ccc21`: -0.169%; for `CCOCC1CN(C(=O)N(C)C)Cc2nnn(CC3CC3)c21` (centres undefined): 4.98%; for `CS(=O)(=O)N1Cc2nc(C(=O)NCc3ccccc3)oc2C1`: -5.1%. The same measure for `O=C(C1CCOCC1)N1C[C@@H]2OCCN(CCN3CCCC3)[C@@H]2C1`: -3.55%. With `CC(=O)NCC(=O)N1Cc2nc(COCc3csc(C)n3)oc2C1`, the cytotoxicity at 70.5 h was -8.19%.

Take `Cn1nnc2c1C(COCC1CC1)CN(C(=O)[C@H]1CCCO1)C2` (some centres undefined): the cytotoxicity at 70.5 h stood at 0%.

Turning to `CC(=O)NCC(=O)N1CCc2nc(-c3ccccc3)nc(C)c2CC1`, the cytotoxicity at 70.5 h was -5.16%. For `C[C@@H]1C[C@H]2CN(C(=O)c3cccc4c3OCCO4)C[C@H]2O1`, the cytotoxicity at 70.5 h is -8.32%.

In the case of `CN(C)CC(=O)N1CC[C@H]2OCC[C@@]2(COCC2CC2)C1`, the cytotoxicity at 70.5 h was -11.9%. Consider `COc1cccc(CNC(=O)c2nc3c(o2)CN(S(C)(=O)=O)C3)c1`, for which the cytotoxicity at 70.5 h was -6.24%.

Regarding `CN(C)CCN1CCO[C@H]2CN(C(=O)C3CCOCC3)C[C@H]21`, the cytotoxicity at 70.5 h was -4.53%. As to `CCS(=O)(=O)N1C[C@@H](c2nnc(C)o2)C[C@H]2OCC[C@H]21`, the cytotoxicity at 70.5 h was -9.81%.

For `Cn1nc(C(=O)N2CCCC2)c2c1CN(CC1CCOCC1)C2`, the cytotoxicity at 70.5 h was 4.3%. The same measure for `O=C(C1CCC1)N1CCC2(CC1)CNCCO2`: 4.67%; for `CCN(CC)c1ccc2ccc(C(=O)N(C)C)cn12`: 8.29%. `CCOCC(=O)N1CCCn2c(nnc2Cn2cccc2)C1`: the cytotoxicity at 70.5 h was 3.11%.

As to `CC(=O)N1CCC2(C1)c1ccccc1S(=O)(=O)N2Cc1ccccc1` (centres undefined), the cytotoxicity at 70.5 h is 3.49%.

For `Cc1noc([C@H]2C[C@H]3OCC[C@H]3N(S(C)(=O)=O)C2)n1`, the cytotoxicity at 70.5 h was 3.17%. As for `CCS(=O)(=O)N1C[C@H](c2nc(C)no2)C[C@H]2OCC[C@H]21`, the figure is 5.21%; as for `CCOCC1CN(Cc2ccc3c(c2)OCO3)Cc2nccn2C1` (centres undefined), 0.869%; as for `COc1cc(N2C[C@H]3OCC[C@H]3[C@H](C(=O)N3CCCC3)C2)ncn1`, 27.7%. The same measure for `NC(=O)N1CC[C@@H]2O[C@H](COCC(=O)N3CCCC3)CC[C@@H]21`: -0.223%; for `Cc1csc(CN2CC[C@H]3C[C@@H](c4nc(C)no4)O[C@@H]3C2)n1`: -7.69%. As for `COCCNC(=O)[C@@H]1CN(c2cc(OC)ncn2)C[C@H]2OCC[C@H]21`, the figure is -7.76%. `COCCN1C(=O)C[C@@H]2[C@H]1CCN2C(=O)c1ccc[nH]1`: the cytotoxicity at 70.5 h was -5.24%. The same measure for `CS(=O)(=O)N1CCOCC2(CCN(C(=O)c3ccco3)CC2)C1`: -8.61%; for `Cc1ccc(C(=O)N2CCC3(CC2)COCCN(S(C)(=O)=O)C3)cc1C`: -6.37%. The same measure for `Cc1ncsc1CN1C[C@H](C(=O)NC2CCCC2)[C@@H]2CCO[C@@H]2C1`: -1.79%. As for `Cc1csc(CN2CC[C@H]3C[C@@H](c4nnc(C)[nH]4)O[C@@H]3C2)n1`, the figure is 0.739%. For the molecule `c1cc(N2CCC3(COCc4cnc(NCC5CC5)nc43)C2)ncn1` (centres undefined), the cytotoxicity at 70.5 h amounted to 32.2%. As for `COC[C@@]12CCO[C@@H]1CCN(C(=O)c1ccc(F)c(F)c1)C2`, the figure is 0.0264%; as for `O=C(c1ccco1)N1CCC[C@]2(C[C@H](Oc3ncccc3F)CO2)C1`, -1.08%; as for `COC[C@@]12CCO[C@@H]1CCN(C(=O)Cc1cccc(F)c1)C2`, 2.86%. For the molecule `Cc1nnc(N2CCCC3(CN(Cc4nccn4C)CCO3)C2)o1` (centres undefined), the cytotoxicity at 70.5 h was -0.85%. As for `CCN1CC2(CC1=O)CN(C(=O)c1ccco1)CCN(C(=O)C(C)C)C2` (centres undefined), the figure is 0.454%. The same measure for `c1cc(-c2ccc3c(c2)CCC32CCN(c3nncs3)CC2)co1`: -9.51%.

For `Cc1nc(COC[C@@H]2CC[C@H]3NCC[C@H]3O2)cs1`, the cytotoxicity at 70.5 h was found to be 38.8%.

For `O=C(c1ccccc1)N1CCO[C@@H]2CN(c3ncccn3)C[C@@H]2C1`, the cytotoxicity at 70.5 h is -6.94%. The same measure for `Cn1nc(Cn2cccn2)c2c1CN(Cc1ccoc1)C2`: -3.73%; for `O=C(NCc1ccco1)[C@@H]1COC[C@H]2CN(c3ncc(F)cn3)C[C@H]21`: -7.6%. The same measure for `Cc1cnc(N2C[C@@H]3[C@@H](C2)OCC(=O)N3CC(C)C)nc1`: 2.16%; for `Cc1cccc(S(=O)(=O)N2CC[C@H]3[C@H]2CCN3c2ncccn2)c1`: -6.57%; for `Cc1nnc([C@]23COC[C@H]2CN(Cc2cnn(C)c2)C3)o1`: -4.29%. The same measure for `O=C(c1cnccn1)N1C[C@@H]2C[C@@H](c3nc(C4CC4)cs3)O[C@@H]2C1`: -1.34%; for `COCCN1C2(CCN(CC3CC3)C2)c2ccccc2S1(=O)=O` (centres undefined): 4.8%.

Regarding `Cc1nc(CN2C(=O)COC3(CCN(Cc4ccsc4)CC3)C2C)cs1` (centres undefined), the cytotoxicity at 70.5 h was -1.09%. `Cn1cccc1CN1CCC2(CC1)CN(c1ccccc1)C(=O)CO2`: the cytotoxicity at 70.5 h is 2.21%. As for `Cc1cccc(CN2C[C@@H]3OCCN(c4ccnc(N(C)C)n4)[C@@H]3C2)c1`, the figure is 10%; as for `CC(C)N(C)Cc1cnc2n1CCN(C(=O)Cc1ccsc1)C2`, 3.66%; as for `O=C(c1cccc(O)c1)N1CCC2(CCN2c2ncccn2)C1` (centres undefined), 2.82%. The same measure for `O=C(C[C@@H]1COC[C@H]2CN(C(=O)c3ccccn3)C[C@@H]12)N1CCCC1`: 1.42%; for `O=C1COC2(CCN(Cc3ccoc3)CC2)CN1c1ccccc1`: 5.1%; for `O=C1COC2(CCN(Cc3cccs3)CC2)CN1c1ccsc1`: 1.63%. Take `COCCNC(=O)[C@H]1CN(Cc2cccs2)C[C@H]2OCC[C@@H]12`: the cytotoxicity at 70.5 h is 25.4%.

For the molecule `O=C1C[C@H]2[C@@H](CCN2C(=O)c2ccc[nH]2)N1CCN1CCCC1`, the cytotoxicity at 70.5 h was -2.17%. The same measure for `Cn1cc(CN2CCC3(CC2)CCN(C(=O)c2cscn2)C3)cn1`: -3.37%; for `O=C(c1cccnc1)N1CCC2(CC1)COCCN(c1ncccn1)C2`: -9.03%. As for `O=C(c1ccncn1)N1CCC[C@]2(C[C@H](Oc3ncccc3F)CO2)C1`, the figure is 23.2%.

Consider `O=C(c1ncccn1)N1CCC[C@]2(C[C@@H](Oc3ncccc3F)CO2)C1`, for which the cytotoxicity at 70.5 h was found to be 21.8%.

Take `O=C(Cc1ccsc1)N1C[C@@H]2OCCN(CC3CCCO3)[C@@H]2C1` (some centres undefined): the cytotoxicity at 70.5 h was 7.05%.

For `COCC(=O)N1C[C@@H]2CCCO[C@@H]2[C@H](N(C)Cc2ccco2)C1`, the cytotoxicity at 70.5 h was -3.25%. The same measure for `O=C(Cc1ccccc1)N1C[C@@H]2OCCN(CC3CCCO3)[C@@H]2C1` (some centres undefined): -6.14%; for `O=C(N[C@@H]1CN[C@@H]2CCCO[C@@H]21)c1cscn1`: -3.45%.

In the case of `CN(C)CCN1CCO[C@H]2CN(C(=O)N(C)C)C[C@H]21`, the cytotoxicity at 70.5 h amounted to 24.8%. As for `Cc1cccc(CN2C[C@H]3C[C@H](C(=O)NCc4cccnc4)[C@@H](C2)O3)c1`, the figure is 25%; as for `N#Cc1cccc(CN2Cc3nccn3CC(CN3CCCC3)C2)c1` (centres undefined), 0.61%; as for `O=C1COC2(CCN(Cc3cccs3)CC2)CN1c1cccnc1`, 5.94%. Regarding `Cc1ccc(N2CCC3(CC2)COCCN(c2nccs2)C3)nn1`, the cytotoxicity at 70.5 h is 2.35%. The same measure for `Cc1nc(CO[C@H]2CN(Cc3cccs3)[C@@H]3COC[C@H]23)cs1`: -3.05%; for `Cc1cccc(CN2C[C@H](OCc3csc(C)n3)[C@H]3COC[C@H]32)n1`: -3.75%; for `c1cc(CN2CCc3ncc(CN4CCCCC4)n3CC2)cs1`: 19.1%. As for `COCc1nn(C(C)C)c2c1CCN(Cc1ccccn1)C2`, the figure is -3.77%. As for `O=C(c1cccnc1)N1CCC[C@]2(C[C@H](Oc3ncccc3F)CO2)C1`, the figure is 0.397%; as for `CN1Cc2cnn(CC3CCCC3)c2C(COCC2CC2)C1` (centres undefined), -1.16%; as for `CN1CC(=O)N(c2cccc(F)c2)CC12CCN(Cc1cnn(C)c1)C2` (centres undefined), 4.08%. As for `Cc1ccc(CN2Cc3c(C(=O)N4CCN(C)CC4)nn(C)c3C2)s1`, the cytotoxicity at 70.5 h is -3.87%.
